Publication PMC6928636, “Broad-Spectrum Amino Acid Transporters ClAAP3 and ClAAP6 Expressed in Watermelon Fruits” (International Journal of Molecular Sciences, 2019)
Read-outs that look alike come from different tables or passages of the source.

What was measured:
Details in all cases: labelled compound; empty-vector values used to normalize
[1] = test system: ClAAP3
[2] = test system: ClAAP6
[3] = test system: T1, ClAAP3; assay: [3H]Arg uptake into yeast […]Δ[…]α cells; format: cell-based, Citrullus lanatus
T1 construct: untagged; expressed in S. cerevisiae 22Δ10α lacking endogenous amino acid transporters

[4] = test system: T2, ClAAP6; assay: [3H]Arg uptake into yeast […]Δ[…]α cells; format: cell-based, Citrullus lanatus
T2 construct: untagged; expressed in S. cerevisiae 22Δ10α lacking endogenous amino acid transporters

`O=C(O)[C@@H]1CCCN1` [Pro] was tested, and the Km [1] was 398 ± 48.6 µM and the Km [2] was 74 ± 9.8 µM.
For `N=C(N)NCCC[C@H](N)C(=O)O` [Arg], the Km [3] was 54.1 ± 7.5 µM and the Km [4] was 579 ± 24.1 µM.
